Assay results as given in patent US12527325B2, “Pesticidally active diazine-amide compounds” (SYNGENTA CROP PROTECTION AG, priority 2019, dated 2026).

Tests used:
Assay type in all cases: in vivo
[1] = system: Plutella xylostella; experiment: Example B5: Plutella xylostella (Diamond Back Moth); conditions: 192 h, application rate of 200 ppm, 24-well artificial diet, eggs, 8 days after infestation, read-out: control in at least one of the two categories (mortality or growth inhibition)
Description: Example B5: Plutella xylostella (Diamond Back Moth)
24-well microtiter plates with artificial diet were treated with aqueous test solutions prepared from 10′000 ppm DMSO stock solutions by pipetting. After drying, Plutella eggs were pipetted through a plastic stencil onto a gel blotting paper and the plate was closed with it. The samples were assessed for mortality and growth inhibition in comparison to untreated samples 8 days after infestation.

[2] = system: Chilo suppressalis; experiment: Example B4: Chilo suppressalis (Striped Rice Stemborer); conditions: 144 h, application rate of 200 ppm, artificial diet, L2 larvae, 6 days after infestation, read-out: control in at least one of the three categories (mortality, anti-feedant or growth inhibition)
Description: Example B4: Chilo suppressalis (Striped Rice Stemborer)
24-well microtiter plates with artificial diet were treated with aqueous test solutions prepared from 10′000 ppm DMSO stock solutions by pipetting. After drying, the plates were infested with L2 larvae (6-8 per well). The samples were assessed for mortality, anti-feeding effect, and growth inhibition in comparison to untreated samples 6 days after infestation. Control of Chilo suppressalis by a test sample is given when at least one of the categories mortality, anti-feedant effect, and growth inhibition is higher than the untreated sample.

[3] = system: Spodoptera littoralis; experiment: Example B9: Spodoptera littoralis (Egyptian Cotton Leaf Worm), cotton leaf disc spray; conditions: foliar, 72 h, application rate of 200 ppm, sprayed cotton leaf discs, L1 larvae, 3 days after infestation, read-out: control in at least one of the three categories (mortality, anti-feedant or growth inhibition)
[4] = system: Diabrotica balteata; experiment: Example B1: Diabrotica balteata (Corn Root Worm); conditions: 96 h, application rate of 200 ppm, sprayed maize sprouts, L2 larvae, 4 days after infestation, read-out: control in at least one of the two categories (mortality or growth inhibition)
Description: Example B1: Diabrotica balteata (Corn Root Worm)
Maize sprouts placed onto an agar layer in 24-well microtiter plates were treated with aqueous test solutions prepared from 10′000 ppm DMSO stock solutions by spraying. After drying, the plates were infested with L2 larvae (6 to 10 per well). The samples were assessed for mortality and growth inhibition in comparison to untreated samples 4 days after infestation.

[5] = system: Plutella xylostella; experiment: Example B12: Plutella xylostella (Diamondback Moth), 96-well artificial diet; conditions: 216 h, application rate of 500 ppm, eggs, 9 days after infestation
Description: Example B12: Plutella xylostella (Diamondback Moth)
96-well microtiter plates containing artificial diet were treated with aqueous test solutions, prepared from 10′000 ppm DMSO stock solutions, by a liquid handling robot. After drying, eggs (˜30 per well) were infested onto a netted lid which was suspended above the diet. The eggs hatch and L1 larvae move down to the diet. The samples were assessed for mortality 9 days after infestation.

## CC(NC(=O)c1cc(C(F)(F)F)cc(C(F)(F)C2CC2)c1)c1nccnc1-c1ccc(Cl)cn1 (stereo not shown) [P4, N-[1-[3-(5-chloro-2-pyridyl)pyrazin-2-yl]ethyl]-3-[cyclopropyl(difluoro)methyl]-5-(trifluoromethyl) benzamide]
[1]
  percent control (mortality or growth inhibition) at 200 ppm: ≥ 80%
[2]
  percent control (mortality, anti-feedant effect or growth inhibition) at 200 ppm: ≥ 80%
[3]
  percent control (mortality, anti-feedant effect or growth inhibition) at 200 ppm: ≥ 80%

## CC(NC(=O)c1cc(C(F)(F)F)cc(C(C)(C)C#N)c1)c1nccnc1-c1ccc(F)cn1 (stereo not shown) [P5, 3-(1-cyano-1-methyl-ethyl)-N-[1-[3-(5-fluoro-2-pyridyl)pyrazin-2-yl]ethyl]-5-(trifluoromethyl) benzamide]
[1]
  percent control (mortality or growth inhibition) at 200 ppm: ≥ 80%

## CC(NC(=O)c1cc(C(F)(F)F)cc(C(C)(C)C#N)c1)c1nccnc1-c1ncc(C2CC2)cn1 (stereo not shown) [P6, 3-(1-cyano-1-methyl-ethyl)-N-[1-[3-(5-cyclopropylpyrimidin-2-yl)pyrazin-2-yl]ethyl]-5-(trifluoromethyl) benzamide]
[1]
  percent control (mortality or growth inhibition) at 200 ppm: ≥ 80%
[2]
  percent control (mortality, anti-feedant effect or growth inhibition) at 200 ppm: ≥ 80%
[3]
  percent control (mortality, anti-feedant effect or growth inhibition) at 200 ppm: ≥ 80%
[4]
  percent control (mortality or growth inhibition) at 200 ppm: ≥ 80%

## CC(NC(=O)c1cc(C(F)(F)F)cc(C(C)(C)C#N)c1)c1nccnc1-c1ccccn1 (stereo not shown) [P7, 3-(1-cyano-1-methyl-ethyl)-N-[1-[3-(2-pyridyl)pyrazin-2-yl]ethyl]-5-(trifluoromethyl) benzamide]
[1]
  percent control (mortality or growth inhibition) at 200 ppm: ≥ 80%
[2]
  percent control (mortality, anti-feedant effect or growth inhibition) at 200 ppm: ≥ 80%
[3]
  percent control (mortality, anti-feedant effect or growth inhibition) at 200 ppm: ≥ 80%
[4]
  percent control (mortality or growth inhibition) at 200 ppm: ≥ 80%

## CC(NC(=O)c1cc(C(F)(F)F)cc(C(C)(C)C#N)c1)c1nccnc1-c1ccc(Cl)cn1 (stereo not shown) [P8, N-[1-[3-(5-chloro-2-pyridyl)pyrazin-2-yl]ethyl]-3-(1-cyano-1-methyl-ethyl)-5-(trifluoromethyl) benzamide]
[1]
  percent control (mortality or growth inhibition) at 200 ppm: ≥ 80%
[2]
  percent control (mortality, anti-feedant effect or growth inhibition) at 200 ppm: ≥ 80%
[3]
  percent control (mortality, anti-feedant effect or growth inhibition) at 200 ppm: ≥ 80%
[4]
  percent control (mortality or growth inhibition) at 200 ppm: ≥ 80%

## CC(NC(=O)c1cc(C(F)(F)F)cc(C(C)(C)C#N)c1)c1nccnc1-c1ccc(Br)cn1 (stereo not shown) [P9, N-[1-[3-(5-bromo-2-pyridyl)pyrazin-2-yl]ethyl]-3-(1-cyano-1-methyl-ethyl)-5-(trifluoromethyl) benzamide]
[1]
  percent control (mortality or growth inhibition) at 200 ppm: ≥ 80%
[2]
  percent control (mortality, anti-feedant effect or growth inhibition) at 200 ppm: ≥ 80%
[3]
  percent control (mortality, anti-feedant effect or growth inhibition) at 200 ppm: ≥ 80%
[4]
  percent control (mortality or growth inhibition) at 200 ppm: ≥ 80%

## CC(NC(=O)c1cc(C(F)(F)F)cc(S(=O)(=O)C(F)(F)F)c1)c1nccnc1-c1ccc(F)cn1 (stereo not shown) [P12, N-[1-[3-(5-fluoro-2-pyridyl)pyrazin-2-yl]ethyl]-3-(trifluoromethyl)-5-(trifluoromethylsulfonyl) benzamide]
[2]
  percent control (mortality, anti-feedant effect or growth inhibition) at 200 ppm: ≥ 80%
[5]
  mortality at 500 ppm: ≥ 80%

## CC(NC(=O)c1cc(C(F)(F)F)cc(S(=O)(=O)C(F)(F)F)c1)c1nccnc1-c1ccc(Br)cn1 (stereo not shown) [P14, N-[1-[3-(5-bromo-2-pyridyl)pyrazin-2-yl]ethyl]-3-(trifluoromethyl)-5-(trifluoromethylsulfonyl) benzamide]
[5]
  mortality at 500 ppm: ≥ 80%

## CC(NC(=O)c1cc(C(F)(F)F)cc(S(=O)(=O)C(F)(F)F)c1)c1nccnc1-c1ccc(Cl)cn1 (stereo not shown) [P15, N-[1-[3-(5-chloro-2-pyridyl)pyrazin-2-yl]ethyl]-3-(trifluoromethyl)-5-(trifluoromethylsulfonyl) benzamide]
[5]
  mortality at 500 ppm: ≥ 80%

## CC(NC(=O)c1cc(C2CC2)cc(C(F)(F)F)c1)c1nccnc1-c1ccc(Br)cn1 (stereo not shown) [P29, N-[1-[3-(5-bromo-2-pyridyl)pyrazin-2-yl]ethyl]-3-cyclopropyl-5-(trifluoromethyl)benzamide]
[1]
  percent control (mortality or growth inhibition) at 200 ppm: ≥ 80%
[5]
  mortality at 500 ppm: ≥ 80%

## CC(NC(=O)c1cc(C(F)(F)F)cc(C(F)(F)C2CC2)c1)c1nccnc1-c1ccc(F)cn1 (stereo not shown) [P38, 3-[cyclopropyl (difluoro)methyl]-N-[1-[3-(5-fluoro-2-pyridyl)pyrazin-2-yl]ethyl]-5-(trifluoromethyl)benzamide]
[1]
  percent control (mortality or growth inhibition) at 200 ppm: ≥ 80%
[5]
  mortality at 500 ppm: ≥ 80%

## CC(NC(=O)c1cc(OCC2CC2)nc(C(F)(F)F)c1)c1nccnc1-c1ncccn1 (stereo not shown) [P43, 2-(cyclopropylmethoxy)-N-[1-(3-pyrimidin-2-ylpyrazin-2-yl)ethyl]-6-(trifluoromethyl)pyridine-4-carboxamide]
[1]
  percent control (mortality or growth inhibition) at 200 ppm: ≥ 80%
[2]
  percent control (mortality, anti-feedant effect or growth inhibition) at 200 ppm: ≥ 80%

## COC1(c2cc(C(=O)NC(C)c3nccnc3-c3ncccn3)cc(C(F)(F)F)c2)CC1 (stereo not shown) [P47, 3-(1-methoxycyclopropyl)-N-[1-(3-pyrimidin-2-ylpyrazin-2-yl)ethyl]-5-(trifluoromethyl)benzamide]
[1]
  percent control (mortality or growth inhibition) at 200 ppm: ≥ 80%
[2]
  percent control (mortality, anti-feedant effect or growth inhibition) at 200 ppm: ≥ 80%

## CC(NC(=O)c1cc(C(F)(F)F)cc(C(C)(C)C#N)c1)c1nccnc1-c1ncc(Br)cn1 (stereo not shown) [P49, N-[1-[3-(5-bromopyrimidin-2-yl)pyrazin-2-yl]ethyl]-3-(1-cyano-1-methyl-ethyl)-5-(trifluoromethyl)benzamide]
[1]
  percent control (mortality or growth inhibition) at 200 ppm: ≥ 80%
[2]
  percent control (mortality, anti-feedant effect or growth inhibition) at 200 ppm: ≥ 80%
[3]
  percent control (mortality, anti-feedant effect or growth inhibition) at 200 ppm: ≥ 80%
[4]
  percent control (mortality or growth inhibition) at 200 ppm: ≥ 80%

## Cc1cnc(-c2nccnc2C(C)NC(=O)c2cc(C3CC3)cc(C(F)(F)F)c2)nc1 (stereo not shown) [P51, 3-cyclopropyl-N-[1-[3-(5-methylpyrimidin-2-yl)pyrazin-2-yl]ethyl]-5-(trifluoromethyl)benzamide]
[1]
  percent control (mortality or growth inhibition) at 200 ppm: ≥ 80%
[3]
  percent control (mortality, anti-feedant effect or growth inhibition) at 200 ppm: ≥ 80%

## Cc1cnc(-c2nccnc2C(C)NC(=O)c2cc(C(F)(F)F)cc(C(F)(F)C3CC3)c2)nc1 (stereo not shown) [P52, 3-[cyclopropyl (difluoro)methyl]-N-[1-[3-(5-methylpyrimidin-2-yl)pyrazin-2-yl]ethyl]-5-(trifluoromethyl)benzamide]
[1]
  percent control (mortality or growth inhibition) at 200 ppm: ≥ 80%
[3]
  percent control (mortality, anti-feedant effect or growth inhibition) at 200 ppm: ≥ 80%

## CC(NC(=O)c1cc(C(F)(F)F)cc(C(F)(F)C2CC2)c1)c1nccnc1-c1ncc(Br)cn1 (stereo not shown) [P53, N-[1-[3-(5-bromopyrimidin-2-yl)pyrazin-2-yl]ethyl]-3-[cyclopropyl(difluoro)methyl]-5-(trifluoromethyl)benzamide]
[1]
  percent control (mortality or growth inhibition) at 200 ppm: ≥ 80%
[2]
  percent control (mortality, anti-feedant effect or growth inhibition) at 200 ppm: ≥ 80%
[3]
  percent control (mortality, anti-feedant effect or growth inhibition) at 200 ppm: ≥ 80%
[4]
  percent control (mortality or growth inhibition) at 200 ppm: ≥ 80%

## Cc1cnc(-c2nccnc2C(C)NC(=O)c2cc(C(F)(F)F)cc(C3(C#N)CC3)c2)nc1 (stereo not shown) [P54, 3-(1-cyanocyclopropyl)-N-[1-[3-(5-methylpyrimidin-2-yl)pyrazin-2-yl]ethyl]-5-(trifluoromethyl)benzamide]
[1]
  percent control (mortality or growth inhibition) at 200 ppm: ≥ 80%
[2]
  percent control (mortality, anti-feedant effect or growth inhibition) at 200 ppm: ≥ 80%
[3]
  percent control (mortality, anti-feedant effect or growth inhibition) at 200 ppm: ≥ 80%

## Cc1cnc(-c2nccnc2C(C)NC(=O)c2cc(C(F)(F)F)cc(S(=O)(=O)C(F)(F)F)c2)nc1 (stereo not shown) [P56, N-[1-[3-(5-methylpyrimidin-2-yl)pyrazin-2-yl]ethyl]-3-(trifluoromethyl)-5-(trifluoromethylsulfonyl) benzamide]
[1]
  percent control (mortality or growth inhibition) at 200 ppm: ≥ 80%
[2]
  percent control (mortality, anti-feedant effect or growth inhibition) at 200 ppm: ≥ 80%
[3]
  percent control (mortality, anti-feedant effect or growth inhibition) at 200 ppm: ≥ 80%

## CC(NC(=O)c1cc(C(F)(F)F)cc(S(=O)(=O)C(F)(F)F)c1)c1nccnc1-c1ncc(Br)cn1 (stereo not shown) [P57, N-[1-[3-(5-bromopyrimidin-2-yl)pyrazin-2-yl]ethyl]-3-(trifluoromethyl)-5-(trifluoromethylsulfonyl) benzamide]
[1]
  percent control (mortality or growth inhibition) at 200 ppm: ≥ 80%
[2]
  percent control (mortality, anti-feedant effect or growth inhibition) at 200 ppm: ≥ 80%
[3]
  percent control (mortality, anti-feedant effect or growth inhibition) at 200 ppm: ≥ 80%
[4]
  percent control (mortality or growth inhibition) at 200 ppm: ≥ 80%

## CC(NC(=O)c1cc(C2CC2)cc(C(F)(F)F)c1)c1nccnc1-c1ncc(Br)cn1 (stereo not shown) [P58, N-[1-[3-(5-bromopyrimidin-2-yl)pyrazin-2-yl]ethyl]-3-cyclopropyl-5-(trifluoromethyl) benzamide]
[1]
  percent control (mortality or growth inhibition) at 200 ppm: ≥ 80%
[2]
  percent control (mortality, anti-feedant effect or growth inhibition) at 200 ppm: ≥ 80%
[3]
  percent control (mortality, anti-feedant effect or growth inhibition) at 200 ppm: ≥ 80%
[4]
  percent control (mortality or growth inhibition) at 200 ppm: ≥ 80%
